These results are taken from patent publication US20060122195A1, “Sulphonamide compounds that modulate chemokine receptor activity (ccr4)” (priority 2003, published 2006).

One data set concerns the target T1, human recombinant CCR4 receptor (Homo sapiens, UniProt P51679).
T1 construct: Brussels, Belgium; host or cells: CHO-K1
T1 sequence (P51679 1-360): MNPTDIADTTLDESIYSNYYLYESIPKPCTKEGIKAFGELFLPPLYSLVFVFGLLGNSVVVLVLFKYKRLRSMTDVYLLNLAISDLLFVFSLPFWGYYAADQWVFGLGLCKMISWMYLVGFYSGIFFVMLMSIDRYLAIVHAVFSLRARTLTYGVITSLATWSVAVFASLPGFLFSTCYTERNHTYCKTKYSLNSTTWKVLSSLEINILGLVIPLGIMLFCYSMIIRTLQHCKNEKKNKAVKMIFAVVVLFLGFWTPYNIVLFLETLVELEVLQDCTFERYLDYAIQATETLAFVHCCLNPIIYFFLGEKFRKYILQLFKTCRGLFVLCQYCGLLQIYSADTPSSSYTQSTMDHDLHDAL
Nature of the data set: FMAT whole cell binding assay (FB-MDC binding to CHO-K1 cells expressing CCR4). As to conditions: inhibition of FB-MDC binding to CHO-K1 cells expressing human recombinant CCR4; two hours incubation at room temperature; mean. On the procedure: FMAT Whole Cell Binding Assay
CHO-K1 cells stably expressing the human recombinant CCR4 receptor (Euroscreen; Brussels, Belgium) were cultured in NUT.MIX.F—12(HAM) medium with glutamax-1, containing 10% (v/v) foetal bovine serum and 400 μg ml^−1 geneticin
Cells were harvested at approximately 70% confluence by treatment with a cell dissociation buffer, and seeded at 5×10^3 cells/100 μl culture medium into wells of a black Costar clear-bottomed 96-well microtitre plates. Plates were incubated overnight at 37° C. in 5% CO2 and used the following day.
Before use, the cell plates were washed twice with 100 μl Hanks balanced salt solution (HBSS). To each well was then added 65 μl of HBSS, 10 μL of 10% DMSO in HBSS±test compound and then 25 μL of 2.8 nM FB-MDC (Applied Biosystems). This fluorescent probe was prepared from a 10 μM stock in 0.08% (v/v) TFA/16% (v/v) acetonitrile, diluted into HBSS.
After two hours incubation in the dark at room temperature, the plates were analysed in an FMAT8100 reader (Applied Biosystems) to measure fluorescence that was associated with binding of FB-MDC to the cells. Compound activity was determined as an pIC50 [log(concentration of compound that results in 50% inhibition)], comparing fluorescence in control and background wells.
What is called IC50 is the point on the concentration scale where inhibition reaches its midpoint. Regarding `COc1nc(SC[C@H](N)C(N)=O)cnc1NS(=O)(=O)c1cccc(Cl)c1Cl` [Example 4, (2R)-2-Amino-3-[[5-[[(2,3-dichlorophenyl)sulfonyl]amino]-6-methoxypyrazinyl]thio]propanamide], the IC50 was 631 nM.
Turning to `COc1nc(SCC(O)c2nccs2)cnc1NS(=O)(=O)c1cccc(Cl)c1Cl` (centres unmarked) [Example 15, 2,3-Dichloro-N-[5-[[2-hydroxy-2-(2-thiazolyl)ethyl]thio]-3-methoxypyrazinyl]-benzenesulfonamide], the IC50 was 398 nM.

Tested on in a further data set: not given
Assay: not given
Settings: not given
For orientation: melting point means the temperature of the solid-liquid transition. In turn, `COc1nc(SC[C@H](N)C(N)=O)cnc1NS(=O)(=O)c1cccc(Cl)c1Cl` [Example 4, (2R)-2-Amino-3-[[5-[[(2,3-dichlorophenyl)sulfonyl]amino]-6-methoxypyrazinyl]thio]propanamide] showed a melting point of 148 to 152 °C.
Regarding `CNC(=O)[C@@H](N)CSc1nc(OC)c(NS(=O)(=O)c2cccc(Cl)c2Cl)nc1Cl` [Example 28, (2R)-2-Amino-3-[[3-chloro-5-[[(2,3-dichlorophenyl)sulfonyl]amino]-6-methoxypyrazinyl]thio]-N-methylpropanamide], the melting point is 150 to 155 °C.
The compound `COc1nc(SC[C@H](N)CO)c(Cl)nc1NS(=O)(=O)c1cccc(Cl)c1Cl` [Example 10, N-[5-[[(2R)-2-Amino-3-hydroxypropyl]thio]-6-chloro-3-methoxypyrazinyl]-2,3-dichlorobenzenesulfonamide] came in with a melting point of 255 to 256 °C.
Still for that read-out and setting: next, `COc1nc(SCC(N)c2nccn2C)cnc1NS(=O)(=O)c1cccc(Cl)c1Cl` (centres unmarked) [Example 27, N-[5-[[2-Amino-2-(1-methyl-1H-imidazol-2-yl)ethyl]thio]-3-methoxypyrazinyl]-2,3-dichlorobenzenesulfonamide]: 187 to 189 °C; `COC(=O)[C@@H](O)CSc1cnc(NS(=O)(=O)c2cccc(Cl)c2Cl)c(OC)n1` [Example 25, 3-[[5[[(2,3-Dichlorophenyl)sulfonyl]amino]-6-methoxypyrazinyl]thio]-(2R)-2-hydroxypropanoic acid, methyl ester]: 88 to 90 °C.
`COc1nc(SCC(O)c2ccncc2)cnc1NS(=O)(=O)c1cccc(Cl)c1Cl` (centres unmarked) [Example 23, 2,3-Dichloro-N-[5-[[2-hydroxy-2-(4-pyridinyl)ethyl]thio]-3-methoxypyrazinyl]benzenesulfonamide]: the melting point lay within 176 to 177 °C.
On to `COc1nc(SCC(O)c2cccnc2)cnc1NS(=O)(=O)c1cccc(Cl)c1Cl` (centres unmarked) [Example 21, 2,3-Dichloro-N-[5-[[2-hydroxy-2-(3-pyridinyl)ethyl]thio]-3-methoxypyrazinyl]benzenesulfonamide], for which the melting point fell in the range of 188 to 190 °C.
`COc1nc(SC[C@H](N)C(=O)O)cnc1NS(=O)(=O)c1cccc(Cl)c1Cl` [Example 3, S-[5-[[(2,3-Dichlorophenyl)sulfonyl]amino]-6-methoxypyrazinyl]-L-cysteine]: the melting point was 180 to 190 °C.
Compound `COc1nc(SCC(O)CO)cnc1NS(=O)(=O)c1cccc(Cl)c1Cl` (centres unmarked) [Example 19, 2,3-Dichloro-N-[5-[(2,3-dihydroxypropyl)thio]-3-methoxypyrazinyl]benzenesulfonamide] came in with a melting point of 136 to 138 °C.
Consider `CNC(=O)[C@@H](N)CSc1cnc(NS(=O)(=O)c2cccc(Cl)c2Cl)c(OC)n1` [Example 5, (2R)-2-Amino-3-[[5-[[(2,3-dichlorophenyl)sulfonyl]amino]-6-methoxypyrazinyl]thio]-N-methyl-propanamide], for which the melting point is 160 to 164 °C.
Same read-out and setting: next, `CNC(=O)[C@@H](N)CSc1nc(OC)c(NS(=O)(=O)c2cccc(Cl)c2Cl)nc1C` [Example 29, (2R)-2-Amino-3-[[5[[(2,3-dichlorophenyl)sulfonyl]amino]methoxy-3-methylpyrazinyl]thio]-N-methylpropanamide]: 68 to 80 °C.
The same measure, in the same setting: the same measure for `COC(=O)[C@@H](N)CSc1nc(OC)c(NS(=O)(=O)c2cccc(Cl)c2Cl)nc1Cl` [Example 8, S-[3-Chloro-5-[[(2,3-dichlorophenyl)sulfonyl]amino]-6-methoxypyrazinyl]-L-cysteine, methyl ester]: 170 to 173 °C; for `COc1nc(SCC(N)c2cccnc2)cnc1NS(=O)(=O)c1cccc(Cl)c1Cl` (centres unmarked) [Example 22, N-[5-[[2-Amino-2-(3-pyridinyl)ethyl]thio]-3-methoxypyrazinyl]-2,3-dichloro benzenesulfonamide]: 175 to 178 °C; for `COc1nc(SC[C@H](N)C(=O)N(C)C)cnc1NS(=O)(=O)c1cccc(Cl)c1Cl` [Example 6, (2R)-2-Amino-3-[[5-[[(2,3-dichlorophenyl)sulfonyl]amino]-6-methoxypyrazinyl]thio]-N,N-dimethylpropanamide]: 187 to 190 °C.
The same measure, in the same setting: the same measure for `COc1nc(SCC(O)c2ccccc2)cnc1NS(=O)(=O)c1cccc(Cl)c1Cl` (centres unmarked) [Example 20, 2,3-Dichloro-N-[5-[(2-hydroxy-2-phenylethyl)thio]-3-methoxypyrazinyl]benzenesulfonamide]: 141 to 143 °C; for `COc1nc(SCC(N)c2nccs2)cnc1NS(=O)(=O)c1cccc(Cl)c1Cl` (centres unmarked) [Example 30, N-[5-[[2-Amino-2-(2-thiazolyl)ethyl]thio]-3-methoxypyrazinyl]-2,3-dichlorobenzenesulfonamide]: 168 to 169 °C.
Take `COc1nc(SC[C@H](N)C(=O)O)c(Cl)nc1NS(=O)(=O)c1cccc(Cl)c1Cl` [Example 9, S-[3-Chloro-5[[(2,3-dichlorophenyl)sulfonyl]amino]-6-methoxypyrazinyl]-L-cysteine]: the melting point was in the range of 170 to 173 °C.
Same read-out and setting: next, `COC(=O)[C@@H](N)CSc1cnc(NS(=O)(=O)c2cccc(Cl)c2Cl)c(OC)n1` [Example 2, S-[5[[(2,3-Dichlorophenyl)sulfonyl]amino]-6-methoxypyrazinyl]-L-cysteine, methyl ester]: 170 to 174 °C; `COc1nc(SCC(N)c2ccccn2)cnc1NS(=O)(=O)c1cccc(Cl)c1Cl` (centres unmarked) [Example 26, N-[5-[[2-Amino-2-(2-pyridinyl)ethyl]thio]-3-methoxypyrazinyl]-2,3-dichlorobenzenesulfonamide]: 172 to 174 °C; `COC(=O)[C@@H](N)CSc1nc(OC)c(NS(=O)(=O)c2cccc(Cl)c2Cl)nc1C`: 164 to 168 °C.
As to `COc1nc(SCC(O)c2ccccn2)cnc1NS(=O)(=O)c1cccc(Cl)c1Cl` (centres unmarked) [Example 24, 2,3-Dichloro-N-[5-[[2-hydroxy-2-(2-pyridinyl)ethyl]thio]-3-methoxypyrazinyl]benzenesulfonamide], the melting point is 143 to 145 °C.
